This note sets out measurements from US20240261418A1, “SOS1 DEGRADING AGENT AND PREPARATION METHOD THEREFOR AND APPLICATION THEREOF” (SHANGHAI LEADINGTAC PHARMACEUTICAL CO. LTD., priority 2021, published 2024).

This test deals with T1, SOS1 protein (Homo sapiens, UniProt Q07889).
T1 sequence (Q07889 1-1333): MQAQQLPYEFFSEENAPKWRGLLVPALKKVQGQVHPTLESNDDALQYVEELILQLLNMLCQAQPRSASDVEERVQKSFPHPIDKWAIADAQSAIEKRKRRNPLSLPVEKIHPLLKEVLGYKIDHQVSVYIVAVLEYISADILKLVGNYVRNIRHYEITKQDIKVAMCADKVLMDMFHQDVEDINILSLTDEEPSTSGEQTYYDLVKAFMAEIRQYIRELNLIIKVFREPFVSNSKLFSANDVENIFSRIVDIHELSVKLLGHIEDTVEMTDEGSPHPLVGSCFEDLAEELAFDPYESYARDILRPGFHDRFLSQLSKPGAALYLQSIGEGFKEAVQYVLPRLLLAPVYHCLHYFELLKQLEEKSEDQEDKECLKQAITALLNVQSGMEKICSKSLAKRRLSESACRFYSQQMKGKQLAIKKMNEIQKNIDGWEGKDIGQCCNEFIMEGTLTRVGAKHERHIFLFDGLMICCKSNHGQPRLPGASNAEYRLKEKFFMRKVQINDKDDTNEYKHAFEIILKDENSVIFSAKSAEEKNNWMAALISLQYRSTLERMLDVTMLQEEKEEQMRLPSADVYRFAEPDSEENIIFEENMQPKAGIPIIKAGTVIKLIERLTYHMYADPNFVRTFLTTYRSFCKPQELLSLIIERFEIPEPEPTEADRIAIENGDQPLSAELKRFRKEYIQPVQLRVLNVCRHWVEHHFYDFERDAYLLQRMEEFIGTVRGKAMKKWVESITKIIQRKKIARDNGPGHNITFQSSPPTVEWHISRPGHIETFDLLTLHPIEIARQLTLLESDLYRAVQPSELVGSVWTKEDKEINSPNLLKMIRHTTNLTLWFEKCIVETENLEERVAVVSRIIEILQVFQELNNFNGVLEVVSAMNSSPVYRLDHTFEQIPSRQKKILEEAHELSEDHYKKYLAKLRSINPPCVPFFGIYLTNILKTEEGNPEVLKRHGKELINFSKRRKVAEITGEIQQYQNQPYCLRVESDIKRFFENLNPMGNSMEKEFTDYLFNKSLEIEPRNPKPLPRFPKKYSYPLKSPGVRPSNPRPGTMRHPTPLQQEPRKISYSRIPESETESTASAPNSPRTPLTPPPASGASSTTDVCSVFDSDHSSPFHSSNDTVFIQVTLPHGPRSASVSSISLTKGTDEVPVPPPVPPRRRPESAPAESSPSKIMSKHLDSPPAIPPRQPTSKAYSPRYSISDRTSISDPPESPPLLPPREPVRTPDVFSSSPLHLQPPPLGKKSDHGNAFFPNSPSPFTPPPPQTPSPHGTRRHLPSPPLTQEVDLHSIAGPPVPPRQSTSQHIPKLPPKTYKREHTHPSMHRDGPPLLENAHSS
As to the kind of experiment: SOS1 degradation assay (Western blot) in SW-620 cells. It is filed as cell-based. More on the design: host or cells: NCI-H358, A-427, SW-620, DLD-1 (human cancer cell lines). Conditions: SW-620 (KRAS G12V), 24 h; for DC50: read-out: SW620 (G12V) DC50; for Dmax: read-out: SW620 (G12V) Dmax. As to the method: Test Example 2: SOS1 Degradation Assay
The degradation of SOS1 by the compounds was investigated on KRAS G12C mutant human non-small cell lung cancer cells NCI-H358 (ATCC or Stem Cell Bank, Chinese Academy of Sciences), KRAS G12D mutant human lung cancer cells A-427 (ATCC), KRAS G12V mutant human colorectal adenocarcinoma cells SW-620 (ATCC), and KRAS G13D mutant human colorectal adenocarcinoma epithelial cells DLD-1 (ATCC). The specific procedures were as follows:
0.95 mL of cells were seeded into each well of a 24-well cell culture plate to achieve a cell density of 5×10^5 cells/well; the cell plate was incubated in an incubator at 37° C. with 5% CO2 overnight. Then 50 μL of the compound solution after dilution was added to each of the wells with the corresponding cells, so that the final concentration of the compound was in a range of 0.03-3000 nM. The final concentration of DMSO was 0.25%.
After dosing, the cell plate was incubated in an incubator at 37° C. with 5% CO2 for 24 h. The cell culture medium in the 24-well plate was removed, and the plate was washed twice with 1×PBS. 180 μL of RIPA (strong) lysis buffer (Beyotime, P0013B) supplemented with 1 mM phenylmethylsulfonyl fluoride, a protease inhibitor mixture (Beyotime, P1008), and a protease phosphatase inhibitor mixture (Beyotime, P1045) was added to lyse adherent NCI-H358 cells at the bottom of the cell culture plate. After the plate was left to stand on ice for 30 min, the protein lysate in each well was transferred to a 1.5 mL centrifuge tube and centrifuged at 15000 g for 20 min at 4° C. […] The concentration of total protein in the cell lysate supernatant was determined using the BCA Protein Quantification Kit (Tiangen, PA115-02). […]
The concentration of total protein in the cell lysate was determined by BCA. […] After the blocking, the PVDF membrane was incubated with an SOS1 primary antibody (Abcam, ab140621) at 4° C. overnight, washed with a TBST buffer (2.4 g of Tris, 8.8 g of NaCl, 1.5 mL of Tween 20, with pH adjusted to 7.4, with the volume brought to 1 L) for 30 min (10 min/time), incubated with a secondary antibody (Abcam, ab205718) at room temperature for 2 h, washed with a TBST buffer for 30 min (10 min/time), and finally incubated with Clarity Western ECL Substrate (BIO-RAD, 170-5061) for 5 min for luminescence and color development, and a chemiluminescence imaging system (Clinx, ChemiScope 6200 Touch) was used for color development and protein mapping. […] The gray correction value for each sample was calculated by the formula: gray correction value=(gray value of target protein/gray value of corresponding internal reference)×103. Then the degradation rate was calculated by comparing the gray correction value with the gray correction value of the control group. […]

Turning to `COc1cc2nc(C)nc(N[C@H](C)c3cc(-c4c(Cl)cccc4CN(C)C)cs3)c2cc1[C@H]1CC[C@H](C(=O)N2CCN(CC3CCC4(CC3)CCN(C(=O)c3ccc(Cl)c(N5CCC(=O)NC5=O)c3)CC4)CC2)CC1` [Example 1, 1-(2-chloro-5-(9-((4-((1R,4R)-4-(4-(((R)-1-(4-(2-chloro-6-((dimethylamino)methyl)phenyl)thien-2-yl)ethyl)amino)-7-methoxy-2-methylquinazolin-6-yl)cyclohexane-1-carbonyl)piperazin-1-yl)methyl)-3-azaspiro[5.5]undecane-3-carbonyl)phenyl)dihydropyrimidine-2,4(1H,3H)-dione], the DC50 (commonly the concentration giving 50% degradation) is no more than 50 nM and the Dmax (commonly the largest share of the target that was removed) was in the range of 80 to 100%.
In the same order, the values of `COc1cc2nc(C)nc(N[C@H](C)c3cc(-c4c(Cl)cccc4CN(C)C)cs3)c2cc1[C@H]1CC[C@H](C(=O)N2CCC(CCOCC3CCN(C(=O)c4ccc(Cl)c(N5CCC(=O)NC5=O)c4)CC3)CC2)CC1` [Example 5, 1-(2-chloro-5-(4-((2-(1-((1R,4R)-4-(4-(((R)-1-(4-(2-chloro-6-((dimethylamino)methyl)phenyl)thien-2-yl)ethyl)amino)-7-methoxy-2-methylquinazolin-6-yl)cyclohexane-1-carbonyl)piperidin-4-yl)ethoxy)methyl)piperidine-1-carbonyl)phenyl)dihydropyrimidine-2,4(1H,3H)-dione] are no more than 50 nM and 80 to 100%.
